“And” between values parts separate entries of the source, which are not always exact repeats. Equal values may be shown once. Toxic doses and inconclusive results are not listed. How the source made its calls: active means survival T/C of 150% or more; inactive means T/C below 125% in these data.
Columns and labels:
[1] = test system: BDF1 mice, P388 leukemia ip; assay: NCI In Vivo Anticancer Drug Screen. Data for tumor model P388 Leukemia (intraperitoneal) in B6D2F1 (BDF1) mice; conditions: endpoint: mean survival time, higher = longer survival
Outline: (§1)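 Compound-treated tumour-bearing mice were compared with vehicle-treated controls. Survival was recorded, and the value is the treated-group measurement divided by the control-group measurement (T/C).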

[2] = test system: BDF1 mice, P388 leukemia ip, median survival T/C; assay: as above; conditions: endpoint: median survival time, higher = longer survival
Outline: as §1

[3] = dose: 50.0 mg/kg/injection, schedule: Q01DX009 (ip), vehicle: Klucel (hydroxypropylcellulose) (HPC)
[4] = dose: 100.0 mg/kg/injection, schedule: Q04DX003 (ip), vehicle: saline
[5] = dose: 100.0 mg/kg/injection, schedule: Q01DX009 (ip), vehicle: Klucel (hydroxypropylcellulose) (HPC)
[6] = dose: 50.0 mg/kg/injection, schedule: Q01DX009 (ip), vehicle: saline with Tween-80
[7] = dose: 100.0 mg/kg/injection, schedule: Q01DX009 (ip), vehicle: saline with Tween-80
[8] = dose: 200.0 mg/kg/injection, schedule: Q01DX009 (ip), vehicle: saline with Tween-80
[9] = dose: 25.0 mg/kg/injection, schedule: Q01DX009 (ip), vehicle: saline with Tween-80
[10] = dose: 100.0 mg/kg/injection, schedule: Q04DX003 (ip), vehicle: saline with Tween-80
[11] = dose: 200.0 mg/kg/injection, schedule: Q04DX003 (ip), vehicle: saline with Tween-80
[12] = dose: 400.0 mg/kg/injection, schedule: Q04DX003 (ip), vehicle: saline with Tween-80

Measured: T/C

CC1(C)C(=O)C(O)=CC2C1=CCC1C2(C)C(=O)CC2(C)C(C(C)(O)C(=O)CC(O)C(C)(C)O)C(O)CC12C (centres undefined)
inactive: [1]; dose: 4.5 mg/kg/injection, schedule: Q01DX010 (ip), vehicle: carboxymethylcellulose (CMC) 95 % of control | [1]; dose: 9.0 mg/kg/injection, schedule: Q01DX010 (ip), vehicle: carboxymethylcellulose (CMC) 101 % of control | [1]; dose: 36.0 mg/kg/injection, schedule: Q01DX010 (ip), vehicle: carboxymethylcellulose (CMC) 103 % of control

CC(C)(O)/C=C/C(=O)[C@](C)(O)[C@H]1[C@H](O)C[C@@]2(C)[C@@H]3CC=C4[C@@H](C=C(O)C(=O)C4(C)C)[C@]3(C)C(=O)C[C@]12C
inactive: [2]; dose: 6.25 mg/kg/injection, schedule: Q01DX009 (ip), vehicle: Klucel (hydroxypropylcellulose) (HPC) 100 % of control | [2]; dose: 6.25 mg/kg/injection, schedule: Q04DX003 (ip), vehicle: other 90 % of control | [2]; dose: 12.5 mg/kg/injection, schedule: Q04DX003 (ip), vehicle: other 104 % of control | [2]; dose: 25.0 mg/kg/injection, schedule: Q01DX009 (ip), vehicle: Klucel (hydroxypropylcellulose) (HPC) 100 % of control | [2]; dose: 25.0 mg/kg/injection, schedule: Q04DX003 (ip), vehicle: other 104 % of control | [2]; [3] 100 % of control | [2]; dose: 50.0 mg/kg/injection, schedule: Q04DX003 (ip), vehicle: other 109 % of control | [1]; dose: 1.5 mg/kg/injection, schedule: Q01DX010 (ip), vehicle: carboxymethylcellulose (CMC) 97 % of control | [1]; dose: 3.0 mg/kg/injection, schedule: Q01DX010 (ip), vehicle: carboxymethylcellulose (CMC) 99 % of control | [1]; dose: 6.0 mg/kg/injection, schedule: Q01DX010 (ip), vehicle: carboxymethylcellulose (CMC) 101 % of control

CCN(CC)CCCC(C)NC(=O)c1cccc2c([N+](=O)[O-])cccc12 (centres undefined)
inactive: [1]; dose: 3.12 mg/kg/injection, schedule: Q01DX009 (ip), vehicle: water 94 % of control | [1]; dose: 12.5 mg/kg/injection, schedule: Q01DX009 (ip), vehicle: water 100 % of control | [1]; dose: 25.0 mg/kg/injection, schedule: Q01DX009 (ip), vehicle: water 110 % of control | [1]; dose: 50.0 mg/kg/injection, schedule: Q01DX009 (ip), vehicle: water 95 % of control | [1]; dose: 100.0 mg/kg/injection, schedule: Q01DX009 (ip), vehicle: water 106 % of control

O=C(CNC(=O)c1ccc(C(=O)NCC(=O)Nc2ccc(C3=NCCCN3)cc2)cc1)Nc1ccc(C2=NCCCN2)cc1
active: [2]; dose: 66.0 mg/kg/injection, schedule: Q04DX003 (ip), vehicle: saline 168 % of control | [2]; [4] 181 % of control (2×) and 195 % of control | [2]; dose: 150.0 mg/kg/injection, schedule: Q04DX003 (ip), vehicle: saline 272 % of control and 186 % of control | [2]; dose: 400.0 mg/kg/injection, schedule: Q01DX001 (ip), vehicle: Klucel (hydroxypropylcellulose) (HPC) 168 % of control
inactive: [2]; dose: 11.0 mg/kg/injection, schedule: Q04DX003 (ip), vehicle: saline 100 % of control | [2]; dose: 16.0 mg/kg/injection, schedule: Q04DX003 (ip), vehicle: saline 113 % of control | [2]; dose: 25.0 mg/kg/injection, schedule: Q01DX001 (ip), vehicle: Klucel (hydroxypropylcellulose) (HPC) 96 % of control | [2]; dose: 50.0 mg/kg/injection, schedule: Q01DX001 (ip), vehicle: Klucel (hydroxypropylcellulose) (HPC) 103 % of control | [2]; dose: 75.0 mg/kg/injection, schedule: Q01DX001 (ip), vehicle: Klucel (hydroxypropylcellulose) (HPC) 107 % of control | [2]; dose: 100.0 mg/kg/injection, schedule: Q01DX001 (ip), vehicle: Klucel (hydroxypropylcellulose) (HPC) 115 % of control

C=Cc1c(C)c(O)cc2c1CC[C@@H]1C(C)(C)[C@H](O)[C@H](O)C[C@@]21C
inactive: [2]; [5] 102 % of control | [2]; dose: 200.0 mg/kg/injection, schedule: Q01DX009 (ip), vehicle: Klucel (hydroxypropylcellulose) (HPC) 100 % of control | [2]; dose: 400.0 mg/kg/injection, schedule: Q01DX009 (ip), vehicle: Klucel (hydroxypropylcellulose) (HPC) 113 % of control

O=C(Nc1ccc2ncccc2c1)Nc1ccc2ncccc2c1
inactive: [2]; [3] 87 % of control | [2]; dose: 50.0 mg/kg/injection, schedule: Q04DX003 (ip), vehicle: Klucel (hydroxypropylcellulose) (HPC) 91 % of control | [2]; [5] 95 % of control | [2]; dose: 100.0 mg/kg/injection, schedule: Q04DX003 (ip), vehicle: Klucel (hydroxypropylcellulose) (HPC) 95 % of control | [2]; dose: 200.0 mg/kg/injection, schedule: Q04DX003 (ip), vehicle: Klucel (hydroxypropylcellulose) (HPC) 91 % of control

CC(C)CC(NC(=O)C(O)C(N)Cc1ccccc1)C(=O)O (centres undefined)
inactive: [2]; dose: 37.5 mg/kg/injection, schedule: Q01DX009 (ip), vehicle: saline with Tween-80 94 % of control and 98 % of control | [2]; dose: 75.0 mg/kg/injection, schedule: Q01DX009 (ip), vehicle: saline with Tween-80 95 % of control and 98 % of control | [2]; dose: 150.0 mg/kg/injection, schedule: Q01DX009 (ip), vehicle: saline with Tween-80 95 % of control and 100 % of control

CC(Br)C(=O)NCC(=O)NCC(=O)O (centres undefined)
inactive: [2]; dose: 100.0 mg/kg/injection, schedule: Q01DX009 (ip), vehicle: saline 108 % of control | [2]; [4] 108 % of control | [2]; dose: 200.0 mg/kg/injection, schedule: Q01DX009 (ip), vehicle: saline 91 % of control | [2]; dose: 200.0 mg/kg/injection, schedule: Q04DX003 (ip), vehicle: saline 91 % of control | [2]; dose: 400.0 mg/kg/injection, schedule: Q04DX003 (ip), vehicle: saline 87 % of control

Clc1cc(N2CC2)nc(N2CC2)n1
inactive: [2]; dose: 0.11 mg/kg/injection, schedule: Q01DX009 (ip), vehicle: saline 90 % of control | [2]; dose: 0.17 mg/kg/injection, schedule: Q01DX009 (ip), vehicle: saline 95 % of control | [2]; dose: 1.56 mg/kg/injection, schedule: Q01DX001 (ip), vehicle: saline 109 % of control | [2]; dose: 3.12 mg/kg/injection, schedule: Q04DX003 (ip), vehicle: saline 104 % of control
active: [2]; dose: 0.27 mg/kg/injection, schedule: Q01DX009 (ip), vehicle: saline 275 % of control | [2]; dose: 0.4 mg/kg/injection, schedule: Q01DX009 (ip), vehicle: saline 295 % of control | [2]; dose: 0.62 mg/kg/injection, schedule: Q01DX009 (ip), vehicle: saline 157 % of control | [2]; dose: 1.25 mg/kg/injection, schedule: Q01DX009 (ip), vehicle: saline 230 % of control | [2]; dose: 6.5 mg/kg/injection, schedule: Q01DX001 (ip), vehicle: saline 163 % of control | [2]; dose: 6.5 mg/kg/injection, schedule: Q04DX003 (ip), vehicle: saline 168 % of control

C[C@H]1[C@H](C)CC[C@]2(CO)CC[C@]3(C)C(=CC[C@@H]4[C@@]5(C)CC[C@@H](O)C(C)(C)[C@@H]5CC[C@]43C)[C@H]12
inactive: [2]; dose: 50.0 mg/kg/injection, schedule: Q01DX010 (ip), vehicle: acetone 120 % of control | [2]; dose: 400.0 mg/kg/injection, schedule: Q01DX010 (ip), vehicle: acetone 110 % of control

O=C(c1ccccc1)C(SC(C(=O)c1ccccc1)c1ccccc1)c1ccccc1 (centres undefined)
inactive: [2]; [6] 98 % of control | [2]; [7] 97 % of control | [2]; [8] 91 % of control

CCCCOCN(COCCCC)c1cccc(Cl)c1
inactive: [2]; [6] 100 % of control | [2]; [7] 106 % of control | [2]; [8] 117 % of control

O=c1onc(-c2ccc(Cl)cc2)c2ccccc12
inactive: [2]; [9] 105 % of control | [2]; [6] 94 % of control | [2]; [7] 102 % of control

O=C(Nc1ccccc1)C1=C(Nc2ccccc2)CSC1
inactive: [2]; [9] 100 % of control | [2]; dose: 25.0 mg/kg/injection, schedule: Q04DX003 (ip), vehicle: saline with Tween-80 99 % of control | [2]; [6] 91 % of control | [2]; dose: 50.0 mg/kg/injection, schedule: Q04DX003 (ip), vehicle: saline with Tween-80 99 % of control | [2]; [7] 94 % of control | [2]; [10] 96 % of control | [2]; [8] 102 % of control | [2]; [11] 105 % of control | [2]; dose: 400.0 mg/kg/injection, schedule: Q01DX009 (ip), vehicle: saline with Tween-80 110 % of control | [2]; [12] 103 % of control

N=C(Oc1ccccc1)c1ccccc1
inactive: [2]; [6] 100 % of control | [2]; [7] 102 % of control | [2]; [8] 102 % of control

CC(C)(C)NC1=NCCO1
inactive: [2]; [9] 100 % of control | [2]; [6] 100 % of control | [2]; [7] 100 % of control

Cn1nnc2nnc(-c3ccccc3)n21
inactive: [2]; [7] 100 % of control | [2]; [10] 100 % of control | [2]; [8] 103 % of control | [2]; [11] 100 % of control | [2]; [12] 95 % of control

c1ccc(-c2nc3ccccc3nc2-c2ccc(Cc3ccc(-c4nc5ccccc5nc4-c4ccccc4)cc3)cc2)cc1
inactive: [2]; [6] 88 % of control | [2]; [7] 103 % of control | [2]; [8] 88 % of control
